Laboratory results as given in patent US6177405A, “Cyclic analogs of tuftsin” (priority 1992, dated 2001).
Residues, ends and D or L forms follow the SMILES beside them.

Assays:
Type in all cases: cell-based
[1] = system: THP-1 (human acute monocytic leukemia) cell line; assay: Thymidine incorporation assay (growth stimulation effect); conditions: THP-1 cells, at 0.001 and 10 μg/ml; FIG. 2
Protocol: Thymidine Incorporation Assay
THP-1 (a human acute monocytic leukemia line) cells were subcultured in RPMI-1640 medium with 10% FBS. Next day THP-1 cells were collected, washed with RPMI-1640 medium with 2% FBS, and plated into well with peptide (1×10^6 cell in 1 ml). The plate was incubated for 18 hours. ^3 H-thymidine (0.1 μCi per well) was then introduced. The plate was incubated for another hour. The cells were collected into a tube using 1 ml of cold HBSS. After washing the cells twice, the cells were mixed with 0.2 ml of 0.1% sodium dodecyl sulfate, and transferred to a liquid scintillation vial for determination of radioactivity. The mean values from triplicates were used to calculate percent increase over control mean value.
To examine the growth stimulating effect of peptides, a thymidine incorporation experiment was performed using THP-1 (human acute monocytic leukemia) cell line.

[2] = system: Human polymorphonuclear leukocytes (PMNs); assay: Phagocytosis assay (fluorescent microspheres engulfed per PMN)
Protocol: Phagocytosis Assay Human polymorphonuclear leukocytes (PMNs) were prepared from venous blood of healthy donors. Heparinized blood was mixed with dextran and kept at 37° C. for 1 hour. The leukocyte-rich plasma was collected and centrifuged. The resulting pellet was washed with Hank's balanced salt solution (HBSS). The pellet was then suspended into HBSS, layered over Lymphocyte Separation Medium (LSM) and centrifuged. The sedimented cells were washed with HBSS. Contaminant erythrocytes were lysed by suspending the cells in sterile water for 15 seconds. The isotonicity was then restored by adding 10× HBSS. After centrifuging, the PMNs were washed with HBSS, suspended in the same medium, counted, and adjusted to 1×10^6 viable cells/ml (viability>95% by trypan blue dye exclusion). Cells (0.5×10^6 /well) were plated in 24 well plate and placed in a 37° C. CO2 incubator for 30 min to form a monolayer. Thereafter the supernatant was aspirated. Tuftsin or analog in 250 μl HBSS and 2.5×10^7 fluorescent microspheres (2 μm diameter) in 250 μl HBSS, were added to each well resulting in a particle to PMN ratio of 50:1, mixed, and incubated for 15 min. The supernatant was then quickly aspirated and each well washed with HBSS. One ml of trypsin (0.25% in saline) was added to each well and the plate incubated for 15 min to detach the cells and remove non-engulfed particles associated on the surface of PMN. The cells were transferred, layered over 2 ml fetal bovine serum (FBS), and centrifuged. The supernatant containing free particles were removed. The cell pellet was suspended, fixed in 2% paraformaldehyde, and plated again into a well. After 10 min, particles engulfed per PMN were counted under a microscope (100 cells per well). The mean values from triplicates were used to calculate percent phagocytosis increase over control mean value. Using purified cyclo[[…]] (SEQ ID no. 1) as an example, we have examined in vitro biological activities of this peptide. A phagocytosis assay was performed to compare the activity of cyclo[[…]] (SEQ ID no. 1) to that of tuftsin. The optimum concentration of tuftsin in this assay is 5 μg/ml. However, the optimum concentration for cyclo[[…]]

[3] = system: human NK cells; assay: Tumor cell cytotoxicity assay by human NK cells (4 hour 51Cr release, K-562 targets); conditions: effector:target ratios of 25:1 and 50:1, peptide concentration 1 μg/ml, FIG. 3
Protocol: Tumor Cell Cytotoxicity Assay by Human NK Cells
Heparinized blood was layered over Leukoprep tube (30 ml per tube), and centrifuged. The mononuclear cells at interphase were collected, washed with HBSS, suspended in RPMI-1640 medium with 10% FBS (15 ml per 30 ml starting blood), plated on Petri dishes, and incubated for 1 hour. Non-adherent cells were collected, suspended in RPMI-1640 medium with 5% FBS, and adjusted to 1×10^6 /ml for 4 hour ^51 Cr release assay. The viability of this NK cell enriched fraction was assessed with trypan blue.
The tumor target cells, K-562, were harvested from culture, washed with RPMI-1640 medium with 5% FBS, and centrifuged. Pelleted cells of 2×10^6 K-562 were suspended into 0.2 ml of 100 μCi of ^51 CrO4 in saline, and labelled for 90 min in the incubator. The labelled target cells were washed with RPMI-1640 medium with 5% FBS, suspended in the same medium, and adjusted to a suspension of 2×10^5 /ml. […] Filters containing radioactive supernatants were counted on a γ counter, and counts per minutes (cpm) were recorded. Percent cytotoxicity (% specific lysis) was calculated by the following formula: […]
Spontaneous cpm was obtained by incubating the tumor target cells alone in the medium. Maximum cpm was obtained by releasing the radioactivity from the target cells by treatment with Triton X-100. […]

Compound: C[C@@H](O)[C@@H]1NC(=O)CNC(=O)[C@H](CCCNC(=N)N)NC(=O)[C@@H]2CCCN2C(=O)[C@H](CCCCN)NC1=O [cyclo[Thr-Lys-Pro-Arg-Gly]] (cyclo(GTKPR))
- growth stimulating activity (3H-thymidine incorporation) compared with tuftsin [1]: significantly greater activities than tuftsin
- extent of phagocytosis compared with tuftsin at 5 μg/ml ([2]; 0.1 μg/ml of cyclic peptide vs 5 μg/ml of tuftsin): no significant difference
- potency in phagocytosis assay compared with tuftsin ([2]; at lower concentrations of 0.01 and 0.1 μg/ml, Student t-test, FIG. 1): significantly superior potency over tuftsin
- optimum concentration in phagocytosis assay ([2]; human PMNs, 15 min incubation, particle to PMN ratio 50:1, FIG. 1): 0.1 µg/mL
- optimum concentration, fold lower than tuftsin ([2]; phagocytosis assay, human PMNs): 50 fold
- enhancement of NK tumor cell cytotoxicity compared with tuftsin [3]: significantly greater cytotoxicity
